Laboratory results taken from US20240123076A1, “UNSATURATED DENDRIMERS COMPOSITIONS, RELATED FORMULATIONS, AND METHODS OF USE THEREOF” (The Board of Regents of The University of Texas System, priority 2021, published 2024).
Entries after “also recorded” stand apart in the source; their conditions may differ.

What was measured:
IGROV-1 cells = test: In vitro luciferase expression of Luc mRNA LNPs; format: cell-based; details: IGROV-I cells, 25 ng mRNA per well, 24 h; lipid:DOPE:cholesterol:DMG-PEG2k 15:15:30:3
Procedure: Ionizable lipid, DOPE, cholesterol, DMG-PEG2k were dissolved in ethanol as noted below (S2, base formulation). Firefly Luciferase (Luc) mRNA was diluted in 10 mM citric acid-sodium citrate buffer (pH 4.4). The lipid mixture and nucleic acid solution were rapidly combined at a volumetric ratio of 3:1 nucleic acid:lipid mix. Afterwards, the LNP formulations were diluted with 1×PBS to 1 ng/uL concentration.
IGROV-1 cells were seeded into white 96-well plates at a density of 1×10^4 cells per well the day before transfection with media. Day of transfection, the media was replaced with 200 μL of fresh media. Then, 25 μL of the Luc mRNA formulations were added with a fixed dose of 25 ng mRNA per well. After incubation for another 24 hours, ONE-Glo+ Tox kits (Promega) were used to detect Luc mRNA expression and cytotoxicity.

C57BL/6 mice [1] = test: In vivo luciferase mRNA delivery (bioluminescence imaging, liver); details: 4-component LNP, tail vein, 0.25 mg/kg Luc mRNA, 6 h
Procedure: Ionizable lipid(s), DOPE, cholesterol, DMG-PEG2k were dissolved in ethanol as noted below in S2, and the Luc mRNA was diluted in 10 mM citric acid-sodium citrate buffer (pH 4.4) at the desired dosage. The lipid mixture and nucleic acid dilution were rapidly combined at a volumetric ratio of 3:1 nucleic acid:lipid mix. The nanoparticles were dialyzed against 1×PBS in Pur-A-Lyzer midi dialysis chambers (Sigma-Aldrich, WMCO 3.5 kDa) for 2 hours prior to injection.
All experiments were approved by the Institutional Animal Care & Use Committee (IACUC) of The University of Texas Southwestern Medical Center and were consistent with local, state and federal regulations as applicable. Female C57BL/6 mice (18-20 g) were injected with LNP formulations via tail vein injection (5 ug of mRNA, 0.25 mg/kg). After 6 h, the luciferase expression was evaluated by live animal bioluminescence imaging. Animals were anesthetized under isofluorane, and D-Luciferin (150 mg/kg) was introduced by intraperitoneal injection. Then, the luciferase activity was imaged, and ex vivo imaging was performed on systemic organs after resection on an IVIS Lumina system (Perkin Elmer). The images were processed using Living Image analysis software (Perkin Elmer).

IGROVI cells = test: Cellular uptake and intracellular trafficking of Cy5-labeled mRNA LNPs (confocal imaging); format: cell-based; details: for co-localization of Cy5 mRNA with lysosomes: 4 h and 24 h after incubation; for cellular uptake (internalization) of Cy5 Luc mRNA LNPs: at 4 hours and 24 hours
Procedure: Flash chromatography was performed on a Teledyne Isco CombiFlash Rf-200i chromatography system equipped with UV-Vis and evaporative light scattering detectors (ELSD) or manually using 60 Å, 40-63 um Silica (Sorbtech) or activated, neutral Aluminum Oxide (Sigma-Aldrich). Particle sizes and PDI were measured by Dynamic Light Scattering (DLS) using a Malvern Zetasizer Nano ZS (He-Ne laser, λ=632 nm). Confocal microscopy was conducted using a Zeiss LSM-710 laser scanning confocal microscope and data analyzed with the Zeiss LSM-710 software.
Cellular uptake and intracellular trafficking was further examined, in vitro experiments were performed using Cy5-labeled mRNA LNPs. […] The progression of Cy5 mRNA was further tracked from the cell membrane to endosomes to lysosomes and quantified co-localization of Cy5 mRNA with lysosomes. […] The overall results connected chemical structure to factors including cellular uptake, endosomal escape, and intracellular trafficking.

[2] = Lipid fusion assay (FRET); details: PBS pH 5.5, 37° C., 5 min
Procedure: Endosome mimicking anionic liposomes were prepared by mixing DOPS:DOPC:DOPE:NBD-PE:N-Rh-PE (25:25:48:1:1 molar ratio) in CHCl3 at a fixed total lipid concentration of 1 mM. Afterwards, the film was created by rotary evaporation of the solution, followed by 2 h of vacuum drying to produce a thin lipid film.
LNPs were formulated with the in vivo method. 100 uL PBS (pH 5.5) was added to each well in a black 96-well plate (n=3 per sample), and 1 μL of endosome mimicking anionic liposomes (1 mM) was added to each well. Endosome mimicking anionic liposomes in PBS served as the negative control (Fmin), and the endosome mimic lipids incubated with 2% Triton-X in PBS solutions were set as positive control (Fmax). 10 μL of LNPs being tested were added to the wells (n=3). After incubating at 37° C. for 5 min., fluorescence measurements (F) were conducted on a microplate reader at Ex/Em=465/520 nm. The lipid fusion (%) was calculated as (F−Fmin)/(Fmax−Fmin)*100%.
Fluorescence resonance energy transfer (FRET)-based assay was employed to determine the LNP's ability to disrupt and fuse with the endosomal membrane (FIG. 4). DOPE-conjugated FRET probes (NBD-PE and N—Rh-PE) were formulated into endosome-mimicking nanoparticles. NBD is normally quenched by the rhodamine, but the NBD signal would rise if disruption of the membrane occurred. […]

C57BL/6 mice [3] = test: Biodistribution of Cy5 Luc mRNA LNPs (ex vivo imaging); format: in vivo; details: IV, 0.25 mg/kg, 6 hours, ex vivo organs

| SMILES | co-localization of Cy5 mRNA with lysosomes (IGROVI cells) | cellular uptake (internalization) of Cy5 Luc mRNA LNPs (IGROVI cells) | biodistribution of Cy5 Luc mRNA (ROI values) (C57BL/6 mice [3]) | further results |
| --- | --- | --- | --- | --- |
| C/C=C/CCCSC(C)C(=O)OCCOC(=O)CCN(CCCN(C)CCCN(CCC(=O)OCCOC(=O)C(C)SCCC/C=C/C)CCC(=O)OCCOC(=O)C(C)SCCC/C=C/C)CCC(=O)OCCOC(=O)C(C)SCCC/C=C/C (centres unmarked) [4A3-4T] |  |  |  | Luc mRNA expression (in vitro Luc mRNA delivery) (IGROV-1 cells): most potent |
| CC/C=C\C/C=C\CSC(C)C(=O)OCCOC(=O)CCN(CCCN(C)CCCN(CCC(=O)OCCOC(=O)C(C)SC/C=C\C/C=C\CC)CCC(=O)OCCOC(=O)C(C)SC/C=C\C/C=C\CC)CCC(=O)OCCOC(=O)C(C)SC/C=C\C/C=C\CC (centres unmarked) [4A3-8/2] |  |  |  | Luc mRNA expression in vivo (mRNA delivery) (C57BL/6 mice [1]): lower Luc expression compared to its alkyl partner |
| CC(C)=CCCC(C)CCSC(C)C(=O)OCCOC(=O)CCN(CCCN(C)CCCN(CCC(=O)OCCOC(=O)C(C)SCCC(C)CCC=C(C)C)CCC(=O)OCCOC(=O)C(C)SCCC(C)CCC=C(C)C)CCC(=O)OCCOC(=O)C(C)SCCC(C)CCC=C(C)C (centres unmarked) [4A3-Cit] | reduced colocalization with lysosomes | effectively internalized | no statistical difference; also recorded: did not change the biodistribution | speed of internalization of Cy5 Luc mRNA LNPs (IGROVI cells; at 4 hours, versus saturated 4A3-SC8 LNPs): internalizing slightly faster; lipid fusion with the model endosomal membrane [2]: efficacious; also recorded: highest lipid fusion ability; Luc mRNA expression in vivo (mRNA delivery) (C57BL/6 mice [1]; 0.25 mg/kg): performed better than 4A3-Ne; also recorded: highest efficacy |
| CCCCCCCCSC(C)C(=O)OCCOC(=O)CCN(CCCN(C)CCCN(CCC(=O)OCCOC(=O)C(C)SCCCCCCCC)CCC(=O)OCCOC(=O)C(C)SCCCCCCCC)CCC(=O)OCCOC(=O)C(C)SCCCCCCCC (centres unmarked) [4A3-SC8, reference compound] | reduced colocalization with lysosomes | effectively internalized | no statistical difference |  |
